Test results from ChEMBL document CHEMBL5338799, “Synthesis and evaluation of phenylimidazole FabK inhibitors as new Anti-C. Difficile agents” (Bioorg Med Chem, 2023).
Values after ≈ are worked out from the molar mass of the structure shown.

What was measured:
Clostridioides difficile = experiment: Antibacterial activity against Clostridioides difficile R20291 assessed as inhibition of bacterial growth incubated for 24 hrs by broth microdilution method; type: functional
[1] = Solubility of compound by turbidimetric assay; type: physicochemical
[2] = Inhibition of Clostridioides difficile FabK expressed in Escherichia coli BL21 (DE3) using crotonyl-CoA as substrate incubated for 10 mins in presence of NADH by microplate reader assay
HCT-116 = experiment: cells; type: functional, cell-based; details: Homo sapiens, HCT-116, 48 h
Description: Cytotoxicity against human HCT-116 cells assessed as reduction in cell viability incubated for 48 hrs by resazurin dye based assay

[3] = Inhibition of Streptococcus pneumoniae FabK expressed in Escherichia coli BL21 (DE3) using crotonyl-CoA as substrate incubated for 10 mins in presence of NADH by microplate reader assay

Structure (SMILES)	MIC (Clostridioides difficile) [µg/mL]	solubility kinetic [1] [µM]	IC50 [2] [nM]	IC50 (HCT-116) [µg/mL]	IC50 [3] [nM]
O=C(NCc1nc(-c2ccc(Br)cc2)c[nH]1)Nc1nc2ccccc2s1	> 50	64.8 (≈ 27.8 µg/mL)	1880		
O=C(NCc1nc(-c2ccc(Br)cc2)c[nH]1)Nc1nc2ccc(F)cc2s1		61.3 (≈ 27.4 µg/mL)	230		
O=C(NCc1nc(-c2ccc(Br)cc2)c[nH]1)Nc1ncc(Sc2ncccc2C(F)(F)F)s1	1.56 (≈ 2.81 µM)	52 (≈ 28.9 µg/mL)	240	> 100	
O=C(NCc1ncc(-c2ccc(Br)cc2)[nH]1)Nc1ncc(Sc2ccccn2)s1	1.56 (≈ 3.2 µM)	80.1 (≈ 39 µg/mL)	1230	> 100	
O=C(NCc1nc(-c2ccc(Br)cc2)c[nH]1)Nc1ncc(Sc2ccc(Br)cc2)s1	25 (≈ 44.2 µM)	63.6 (≈ 36 µg/mL)	530		
O=C(NCc1nc2ccccc2c(=O)[nH]1)Nc1ncc(Sc2ccccn2)s1	> 50		> 10000		
O=C(NCc1nc(-c2ccc(Br)cc2)c[nH]1)Nc1nc2c(C(F)(F)F)cccc2s1	1.56 (≈ 3.14 µM)		> 10000	> 100	
CCOc1ccc2nc(NC(=O)NCc3nc(-c4ccc(Br)cc4)c[nH]3)sc2c1	12.5 (≈ 26.5 µM)	79 (≈ 37.3 µg/mL)	170		
O=C(NCc1nc(-c2ccc(Br)cc2)c[nH]1)Nc1nc2ccc(Cl)cc2s1	6.25 (≈ 13.5 µM)	76.9 (≈ 35.6 µg/mL)	110	> 100	
O=C(NCc1ncc(-c2ccccc2)[nH]1)Nc1ncc(Sc2ccccn2)s1	> 50		> 10000		
O=C(NCc1nc(-c2ccc(Br)cc2)c[nH]1)Nc1ncc(Sc2ncccn2)s1	1.56 (≈ 3.19 µM)	83.9 (≈ 41 µg/mL)	1020	> 100	
O=C(NCc1nc(-c2ccc(Br)cc2)c[nH]1)Nc1ncc(Sc2ccccc2)s1	1.56 (≈ 3.21 µM)		900		
O=C(NCc1nc(-c2ccc(Br)cc2)c[nH]1)Nc1ncc(Sc2nc3ccccc3s2)s1	> 50	50 (≈ 27.2 µg/mL)	420		
O=C(NCc1nc(-c2ccc(Br)cc2)c[nH]1)Nc1nc2cccc(C(F)(F)F)c2s1			2810		
O=C(NCc1nc(-c2ccc(Br)cc2)c[nH]1)Nc1ncc(Sc2ccc(C(F)(F)F)cn2)s1	3.12 (≈ 5.62 µM)	18.3 (≈ 10.2 µg/mL)	770	> 100	
O=C(NCc1nc(-c2ccc(Br)cc2)c[nH]1)Nc1nc2cc(C(F)(F)F)ccc2s1	3.12 (≈ 6.29 µM)		> 10000		
O=C(NCc1nc(-c2ccc(Br)cc2)c[nH]1)Nc1nc2ccc(OC(F)(F)F)cc2s1	12.5 (≈ 24.4 µM)		90		
O=C(NCc1nc(-c2ccc(Br)cc2)c[nH]1)Nc1nc2ccc(Br)cc2s1	50 (≈ 98.6 µM)	31.3 (≈ 15.9 µg/mL)	340		
O=C(NCc1nc(-c2ccc(Br)cc2)c[nH]1)Nc1nc2c(F)cc(F)cc2s1	12.5 (≈ 26.9 µM)	125 (≈ 58 µg/mL)	4530		
COC(=O)c1ccc2nc(NC(=O)CSc3nc4ccccc4[nH]3)sc2c1			4200		1800
O=C(NCc1nc(-c2ccc(Br)cc2)c[nH]1)Nc1ncc(Sc2ccc(Cl)cn2)s1	3.12 (≈ 5.98 µM)	59 (≈ 30.8 µg/mL)	850		
O=C(NCc1nc(-c2ccc(Br)cc2)c[nH]1)Nc1ncc(Sc2ccc3ccccc3n2)s1	> 50	74.7 (≈ 40.1 µg/mL)	750		
O=C(NCc1nc2ccccc2[nH]1)Nc1ncc(Sc2ccccn2)s1	> 50		> 10000		
O=C(NCc1nc(-c2ccccc2)c[nH]1)Nc1ncc(Sc2ccccc2)s1					37
CS(=O)(=O)c1ccc2nc(NC(=O)NCc3nc(-c4ccc(Br)cc4)c[nH]3)sc2c1	> 100	44.5 (≈ 22.5 µg/mL)	450		
